Source: patent US6403125B1, “Utilization of an extract of a plant of the Cecropia genus” (Cognis France (Societe Anonyme), priority 1998, dated 2002)

Test system: human adipocytes
Experiment: Lipolysis activation on human adipocytes in vitro (glycerin release)
Format: cell-based
Settings: 90 minutes at 37° C.
Description: I. Evidence of the Lipolysis Activation Effect on Human Adipocytes in “in vitro” Survival The test used to emphasise the lipolysis activation of human adipocytes in the presence of Cecropia extracts, which are the subject of the present invention, is described below. Lipolysis is removal of triglycerides (or TG) stored in the adipocytes by a hormone-sensitive enzyme, triglyceride lipase (or TGL) which splits the TG into free fatty acids and glycerin which are removed in the blood circulation. The fatty acids can then be absorbed by the muscle cells to produce energy. 1) Principle of the in vitro Test Activation of lipolysis is evaluated by spectrophotometric metering of the rate of glycerin salted out by adipocytes, incubated “in vitro” with the substance to be tested present. The adipocytes are isolated by enzymatic digestion of subcutaneous human tissue by the so-called Rodbell method (see M. Rodbell: “Metabolism of isolated fat cells”. The journal of biological chemistry, Vol. 239, No. 2, pages 375 to 380, 1964). […] 3) Quantisation of the Lipolysis The rate of salted-out glycerin is quantified by spectrophotometry in the medium of the material which floats on the surface by the method described by C. […] The results are expressed as mean values of the activation percentage relative to a proof mass batch (without Cecropia extract).

Compound: CC(C)NCC(O)c1ccc(O)c(O)c1 (centres unmarked) [Isoprenaline, isoprenaline]
- % activation of the lipolysis relative to the proof mass without extract (mean) (0.1 μM): + 45%

Compound: Cn1c(=O)c2[nH]cnc2n(C)c1=O [Theophylline, theophylline]
- % activation of the lipolysis relative to the proof mass without extract (mean) (1 mM): + 70%
